Test results from US20160193240A1, “Ulmoside-A: Useful For Prevention Or Cure Of Metabolic Diseases” (COUNCIL OF SCIENTIFIC & INDUSTRIAL RESEARCH, priority 2013, published 2016).

Columns and labels:
[1] = tested on: C2C12 myotubes; assay: Mitochondrial DNA content by QRT-PCR in C2C12 myotubes; assay type: cell-based, mouse; conditions: 10 nM, 72 hours
Experimental: D. ULMA increases mitochondrial DNA content. C2C12 myotubes in 6 well plates were treated with vehicle (0.1% vol/vol DMSO) or 10 nM ULMA (in DMSO) for 72 h. Following which, total cellular DNA was isolated from these cells by standard procedure (using a genomic DNA isolation kit; Macherey Nagel; according to manufacturer's instructions) and the mitochondrial DNA content was measured by QRT-PCR based measurement of mitochondrial coxII (Mit-CoxII) and cytochrome b (Cytb) and normalized with genomic glycerol three phosphate dehydrogenase DNA level. Data represent mean±SEM from three independent experiments performed in triplicates. *p<0.05 as determined by two tailed unpaired student's t-test.
Adiponectin is also known to activate PGC-1α by indirectly deacetylating this protein through activation of sirt1 (M. Iwabu, T. Yamauchi, M. Okada-Iwabu, K. Sato, T. Nakagawa, M. Funata, M. Yamaguchi, S. Namiki, R. Nakayama, M. Tabata, H. Ogata, N. Kubota, I. Takamoto, Y. K. Hayashi, N. Yamauchi, H. Waki, M. Fukayama, I. Nishino, K. Tokuyama, K. Ueki, Y. Oike, S. Ishii, K. Hirose, T. Shimizu, K. Touhara, T. Kadowaki. Nature; 464(7293): 1313-1319. 2010), therefore PGC-1α acetylation status following ULMA treatment was checked in C2C12 cells. C2C12 myotubes plated in 10 cm dish were treated with vehicle (DMSO) or 10 nM ULMA in DMSO for 6 hours. […]

[2] = tested on: wistar rats; assay: Dexamethasone-mediated reduction of food intake in rats; assay type: in vivo, rat
Experimental: Six to eight week old wistar rats (n=6 per group) were housed separately and treated as indicated in the example. Daily food intake was measured and plotted. […] Data represents mean+/−SEM.
(§1) Blood was collected from cardiac punctures.
Food intake was measured every alternate day by giving measured food to each cage in evening (5.00 PM) and collection of residual food in next morning (9.00 AM) and measuring it. The residual food was subtracted from the food given and plotted.

[3] = tested on: wistar rats; assay: Dexamethasone-induced skeletal muscle atrophy in rats (limb appearance, QRT-PCR of PGC-1α and atrogenes); assay type: in vivo, rat
Experimental: Following 15 d indicated treatment of rats, the skeletal muscle (pulled hind limb) were collected and RNA was extracted from them and QRT-PCR was performed in a Roche lightcycler 480 machine. Data represents mean+/−SEM from six animals done in triplicates. “a” statistical analysis between Vehicle and Dexamethasone-treated groups, “b”, statistical analysis between dex-treated and dex+ ULMA groups. P<0.05, as determined by student's t-test, n=6.
as §1
RNA was isolated from skeletal muscles using Trizol (according to manufacturers' protocol) and reverse transcribed as described above and either PGC-1α expression or muscle atrophy related genes (atrogenes) expression were examined.

[4] = tested on: db/db mice; assay: Random (fed) blood glucose in db/db mice; assay type: in vivo, mouse; conditions: 5 mg/kg ULMA for 15 d
Experimental: 8 week old db/db mice were treated with vehicle (V; 1% gum acacia) or with 5 mg/kg ULMA for 15 days and the fed blood glucose was measured by a glucometer (Gluco Dr. Super sensor; that is capable of measuring 10-900 mg/dl glucose) ** p<0.01, ***p<0.005, n=6.
8 week old female db/db mice (n=6) weighing 40-50 g were divided into 2 groups and maintained as above. Control groups received vehicle (1% gum acacia) and ULMA groups received 5 mg/kg bw ULMA in 1% gum acacia for […]. Body weight and blood glucose were measured at the beginning and end of the studies.

In the case of O=C1c2c(cc(O)c([C@@H]3O[C@H](CO)[C@@H](O)[C@H](O)[C@H]3O)c2O)O[C@@H](c2ccc(O)c(O)c2)[C@@H]1O [ULMA, (2S,3S)-(+)-3′,4′,5,7-tetrahydroxydihydroflavonol-6-C-β-D-glucopyranoside], the “Cytochrome B (Cytb) DNA level” value [1] is reported as “enhanced”, the “mitochondrial cytochrome oxidase II (COX-II) DNA level” value [1] is reported as “enhanced” and the “food intake in vehicle treated (ethanol: IP) rats” value ([2]; 5 mg/kg ULMA oral alone) is reported as “did not affect food intake”. For the same molecule, the “Dex-caused loss in food intake” value ([2]; Dex + 5 mg/kg ULMA oral) was “alleviated it”, the “Dex-caused reduction of skeletal muscle PGC-1α level” value ([3]; Dex + ULMA) was “protected” and the “protection against induction of atrogenes by dexamethasone” value ([3]; Dex + ULMA) was “completely protected”. The “skeletal muscle PGC-1α expression” value ([3]; ULMA alone) was “robust induction”, the Dex-induced limb abnormality ([3]; ULMA co-treatment with Dex) was “prevented it” and the “fed blood glucose in comparison to vehicle treated control mice” value [4] was “significantly reduced fed blood glucose”.
